This experiment concerns the target T1, Bifunctional aspartokinase/homoserine dehydrogenase 1 (Escherichia coli (strain K12), UniProt P00561).
T1 sequence (P00561 whole entry): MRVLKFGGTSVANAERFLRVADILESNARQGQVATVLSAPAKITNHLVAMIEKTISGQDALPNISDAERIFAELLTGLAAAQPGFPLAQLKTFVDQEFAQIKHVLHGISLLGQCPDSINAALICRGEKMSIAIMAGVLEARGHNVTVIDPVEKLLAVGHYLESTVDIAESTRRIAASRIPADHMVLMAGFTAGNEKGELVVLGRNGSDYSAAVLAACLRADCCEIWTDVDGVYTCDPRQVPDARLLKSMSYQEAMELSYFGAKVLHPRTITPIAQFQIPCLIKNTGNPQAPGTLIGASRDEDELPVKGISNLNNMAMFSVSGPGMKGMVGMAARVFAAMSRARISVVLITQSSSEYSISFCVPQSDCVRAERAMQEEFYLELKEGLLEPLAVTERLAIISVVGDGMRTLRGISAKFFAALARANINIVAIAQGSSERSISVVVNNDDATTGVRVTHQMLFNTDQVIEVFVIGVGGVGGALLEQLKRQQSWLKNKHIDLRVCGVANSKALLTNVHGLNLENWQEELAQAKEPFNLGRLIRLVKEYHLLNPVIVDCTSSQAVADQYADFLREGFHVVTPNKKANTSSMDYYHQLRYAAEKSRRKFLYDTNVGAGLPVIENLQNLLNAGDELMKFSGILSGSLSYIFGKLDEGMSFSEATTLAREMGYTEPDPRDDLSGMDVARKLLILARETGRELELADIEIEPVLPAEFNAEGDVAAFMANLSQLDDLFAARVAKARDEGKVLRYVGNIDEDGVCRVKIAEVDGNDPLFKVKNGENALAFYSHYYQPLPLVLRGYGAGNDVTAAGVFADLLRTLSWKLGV
The experiment in a line: Inhibition Assay. From the text: Analogues of L-aspartic acid and beta-aspartyl phosphate were examined as inhibitors in the aspartokinase I reaction by using the coupled reaction with ASA-DH.

In the case of `NCC[C@H](N)C(=O)O` [2,4-Diaminobutanoate], affinity was put at a Ki of 10 mM.
Under `N[C@@H](CC(=O)NO)C(=O)O` [D-aspartate-beta-hydroxamate] stands 16 mM.
As to `CC(C)[C@H](N)C(=O)O` [L-Valine], the affinity corresponds to a Ki of 32 mM. Compared with the last compound, the Ki is about 2-fold higher.
The compound `COC(=O)C[C@H](N)C(=O)OC` [L-Aspartic dimethyl ester] showed a Ki of 71 mM. Compared with the last compound, the Ki is about 2.2-fold higher.
For `CCC(N)C(=O)O` (stereo not given) [2-Aminobutyrate], the inhibitory constant (Ki) was 5 mM.
`C[C@H](N)C(=O)O` [L-alanine] returned a Ki of 99 mM.
Under `NC(C(=O)O)C(=O)O` [Aminomalonate] stands 23 mM; under `CCC[C@H](N)C(=O)O` [L-Norvaline], 3.1 mM.
`N[C@@H](CCC(=O)O)C(=O)O` [L-Glutamic acid] showed a Ki of 38 mM.
With `NC(CCCP(=O)(O)O)C(=O)O` (stereo not drawn) [DL-2-Amino-5-phosphonovalerate], the affinity corresponds to a Ki of 8.4 mM.
In turn, `NC(CC(=O)O)CC(=O)O` [3-Aminoglutarate] came in with a Ki of 45 mM.
Under `CCCC[C@H](N)C(=O)O` [L-norleucine] stands 24 mM.
In the case of `NC(=O)C[C@@H](N)C(=O)O` [D-asparagine] it was 39 mM.
Under `NC(CCP(=O)(O)O)C(=O)O` (stereo not drawn) [DL-2-amino-4-phosphonobutyrate] stands 61 mM.
For `NCC(O)C(=O)O` (racemic) [DL-Isoserine], the affinity corresponds to a Ki of 30 mM.
Under `N[C@@H](CC(=O)O)C(=O)OCc1ccccc1` [D-aspartate alpha-benzyl ester] stands 11 mM; under `N[C@@H](COP(=O)(O)O)C(=O)O` [O-phospho-L-serine], 12 mM; under `N[C@@H](CN(O)N=O)C(=O)O` [L-Alanosine], 7.5 mM.
As to `N[C@@H](CCOP(=O)(O)O)C(=O)O` [Homoserine phosphate], the affinity corresponds to a Ki of 6 mM.
In the case of `COC(=O)CC[C@H](N)C(=O)O` [L-glutamate gamma-methyl ester] it was 24 mM.

Usually Ki stands for the equilibrium dissociation constant of an inhibitor or competing ligand from its target.

Values taken from BindingDB's records for doi:10.1021/bi00118a023 (University of Akron, 1992).
